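Five compound concentrations were applied to cells in 96-well plates for 48 hours; endpoints were derived by simple linear interpolation of the resulting dose-response curve. TGI is the concentration that stops growth completely.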 *1 amine or outer side, *2 acyl side, *3 side chain or, on linkers, in order; H or OH if unused. Where a SMILES comes first, the peptide text is derived from it. Bridges are numbered along the chain shown (N, C = ends). [ ]: non-standard residue; d: D form. The star is where a group is joined. X59 = COc1c(N[*:1])cccc1C(=O)O[C@H](C(=O)[C@H](C)C(=O)[*:2])C(C)C; X58 = CC(C)C[C@H](C(=O)[*:2])C(C)C(=O)C1CCCN1[*:1]; NMeY = CN[C@@H](Cc1ccc(O)cc1)C(=O)O; Boc = CC(C)(C)OC(=O)*; Lac = C[C@H](O)C(=O)O; Bn = c1ccc(C*)cc1
Key:
Experiment in all cases: NCI anticancer screen, dose series, 48 h
KM12 colon = test system: KM12 colon
MDA-MB-435 = test system: MDA-MB-435
SNB-19 CNS = test system: SNB-19 CNS
SW-620 colon = test system: SW-620 colon
T-47D breast = test system: T-47D breast

Row | Compound | TGI (KM12 colon) | TGI (MDA-MB-435) | TGI (SNB-19 CNS) | TGI (SW-620 colon) | TGI (T-47D breast)
1 | O=C1Nc2ccccc2/C1=N/N1C(=O)/C(=C/c2ccccc2S)N=C1c1ccccc1 | > 100 µM | > 100 µM | > 100 µM | > 100 µM | 81.8 µM
2 | CNC(=O)OCc1nc(N=[N+]=[N-])n(C)c1COC(=O)NC | > 100 µM | > 100 µM | – | > 100 µM | –
3 | O=C(c1ccc(Cl)c(Cl)c1)N(C(=O)N1CCN(c2ccccc2)CC1)S(=O)(=O)c1ccccc1 | > 100 µM | > 100 µM | > 100 µM | > 100 µM | > 100 µM
4 | Nc1ncc(N)c(NCC2(CO)CC(CCc3ccccc3)C2)n1 (stereo not drawn) | 23 µM | 22.9 µM | 23.4 µM | 23.9 µM | 9.82 µM
5 | N#CCCN(CCCN(C(=O)Nc1ccc(NC(=O)N(CCCN(CCC#N)C(N)=O)c2ccccc2)cc1)c1ccccc1)C(N)=O | > 100 µM | > 100 µM | > 100 µM | > 100 µM | > 100 µM
6 | Nc1ncnc2c1ncn2[C@@H]1C[C@H](NO)[C@@H](O)[C@H]1O | > 100 µM | > 100 µM | > 100 µM | > 100 µM | > 100 µM
7 | Cc1ccc(S(=O)(=O)NC(=O)NCC(N)=O)cc1 | > 100 µM | – | > 100 µM | > 100 µM | > 100 µM
8 | O=c1[nH]c2cc3[nH]c(=O)c(=O)[nH]c3cc2[nH]c1=O | > 100 µM | > 100 µM | > 100 µM | > 100 µM | –
9 | Cc1ccc2nc(-c3ccc(-c4nc5ccc(C)cc5o4)c(O)c3)oc2c1 | – | > 100 µM | > 100 µM | > 100 µM | > 100 µM
10 | O=C(CSc1nc2ccc(I)cc2c(=O)n1Cc1ccccc1)NN1C(=O)CSC1c1ccccc1 (stereo not drawn) | 54.9 µM | 69.6 µM | > 100 µM | > 100 µM | 92.5 µM
11 | Cn1nc(S(N)(=O)=O)s/c1=N/S(=O)(=O)c1ccc(N)cc1 | > 100 µM | – | > 100 µM | > 100 µM | –
12 | CC(C)(C)OC(=O)NC(Cc1ccc(OCc2ccccc2)cn1)C(=O)O (stereo not drawn) | > 100 µM | > 100 µM | > 100 µM | > 100 µM | –
13 | Brc1ccc(N=Nc2ccc3ccccc3n2)cc1 | > 100 µM | > 100 µM | 37.1 µM | > 100 µM | > 100 µM
14 | CN1C(=O)C(C#N)C2C[C@@]1(C)Oc1ccccc12 (stereo partly drawn) | > 100 µM | > 100 µM | > 100 µM | > 100 µM | –
15 | Cc1cc(C)nc(NS(=O)(=O)c2ccc(Nc3nnc(/C=C/c4c(O)ccc5ccccc45)c(=O)n3N)cc2)n1 | – | 57.6 µM | > 100 µM | > 100 µM | 51.5 µM
16 | COC(=O)C(CC(C)C)NC(=O)CNC(=O)C(Cc1ccc(OCc2ccccc2)cc1)NC(=O)C(COCc1ccccc1)NC(=O)OC(C)(C)C (stereo not drawn) (Boc-S(Bn)Y(Bn)GL-OMe; configuration not given here) | > 100 µM | > 100 µM | > 100 µM | > 100 µM | > 100 µM
17 | CCC1(CC)C(=O)NN(C(=O)c2ccc(Cl)cc2)C1=O | > 100 µM | > 100 µM | > 100 µM | > 100 µM | > 100 µM
18 | COc1ccc(C[C@H]2C(=O)O[C@H](C)[C@H](NC(=O)[C@@H](CC(C)C)C(C)C(=O)C3CCCN3C(=O)[C@H](C)O)C(=O)Nc3cccc(c3OC)C(=O)O[C@@H](C(C)C)C(=O)[C@H](C)C(=O)N[C@@H](CC(C)C)C(=O)N3CCC[C@H]3C(=O)N2C)cc1 (stereo partly drawn) (H-[Lac][X58]T[X59]LP[NMeY](Me); ester 3-C) | > 12.5 µM | > 12.5 µM | > 12.5 µM | > 12.5 µM | > 12.5 µM
19 | CC(C)(C)CN1[C@@H]2CCCC[C@H]2N(CC(C)(C)C)P1(=O)C(O)/C=C/c1ccccc1 (stereo partly drawn) | > 100 µM | > 100 µM | > 100 µM | > 100 µM | > 100 µM
20 | COc1ccc(C(c2cc(OC)c(OC)c(OC)c2)N2C(=O)CCC2C(=O)O)cc1 (stereo not drawn) | > 100 µM | 48.6 µM | > 100 µM | > 100 µM | > 100 µM
21 | O=S1(=O)c2ccccc2-c2nccc3ccnc1c23 | > 100 µM | > 100 µM | 91.3 µM | > 100 µM | > 100 µM
22 | N#CCN1CCN(CC#N)CCN(CC#N)CCN(CC#N)CC1 | > 100 µM | > 100 µM | > 100 µM | > 100 µM | > 100 µM
23 | CCOC(=O)CNC(=O)CNC(=O)CNC(=O)CNNc1c(OCc2ccccc2)c(=O)c1=O | > 100 µM | > 100 µM | > 100 µM | > 100 µM | > 100 µM
24 | C=C1C(=O)OC2/C=C(\C)CC/C=C(\C)CC(OC(=O)/C(=C/CO)CO)[C@@H]12 (stereo partly drawn) | 35.1 µM | 19 µM | > 85.7 µM | 3.36 µM | 15.9 µM

Row | Compound | TGI (KM12 colon) | TGI (MDA-MB-435) | TGI (SNB-19 CNS) | TGI (SW-620 colon) | TGI (T-47D breast)
25 | CC1(C)N([O-])[N+](=O)C1(Br)c1ccccc1 (stereo not drawn) | > 100 µM | > 100 µM | > 100 µM | > 100 µM | > 100 µM
26 | COC(=O)/C(C#N)=C(/NCc1ccccc1)Nc1ccccc1 | – | > 100 µM | > 100 µM | > 100 µM | > 100 µM
27 | COCCNC1CCC(=O)c2[nH]c3ccccc3c21 (stereo not drawn) | > 100 µM | > 100 µM | > 100 µM | > 100 µM | –
28 | CC(=O)c1c2c(cc3c1CC1(C3)Cc3cc4c(c(C(C)=O)c3C1)CCCC4)CCCC2 | > 100 µM | > 100 µM | – | – | > 100 µM
29 | CC(C)=CC[C@H]1C[C@@]2(CC=C(C)C)C(=O)/C(=C(/O)c3ccccc3)C(=O)[C@](CC=C(C)C)(C2=O)C1(C)C | 19.9 µM | 26.2 µM | 20.4 µM | 54.9 µM | 35.2 µM
30 | COC(=O)C1=C(C(=O)OC)C(OO)(c2ccccc2)OC1=O (stereo not drawn) | > 100 µM | > 100 µM | > 100 µM | > 100 µM | > 100 µM
31 | CC[C@H]1C=CCC[C@@]2(C[C@@H]3CC[C@H]4[C@@H](C(=O)OCCCCCCCCCCCCCCCC(=O)N(CCCNC(C)=O)C[C@H](CCNC(C)=O)OC(C)=O)[C@@]5(CCC[C@@H](C)O5)NC(=[N+]34)N2)O1 | 2.67 µM | 3 µM | 3.07 µM | 3.25 µM | –
32 | COc1ccc2oc(=O)c(-c3csc(-c4ccccc4)n3)cc2c1 | > 100 µM | > 100 µM | 45 µM | > 100 µM | > 100 µM
33 | COc1cc(/C=C2\CC(C)C/C(=C\c3ccc(O)c(OC)c3)C2=O)ccc1O (stereo not drawn) | 3.86 µM | 6.21 µM | 22.3 µM | 5.41 µM | 4.5 µM
34 | Cc1ccc(/C=C2\CCCCCC2=O)cc1 | > 100 µM | > 100 µM | > 100 µM | > 100 µM | > 100 µM
35 | Cc1ccc(S(=O)(=O)OI(O)CC(F)(F)F)cc1 | > 100 µM | > 100 µM | – | > 100 µM | > 100 µM
36 | CC(C)(C)OC(=O)NC(Cc1ccc(OCc2ccccc2)cn1)C(N)=O (stereo not drawn) | > 100 µM | > 100 µM | > 100 µM | > 100 µM | –
37 | Cn1c(-c2cccs2)cc(-c2ccsc2)c1-c1cccs1 | > 100 µM | > 100 µM | > 100 µM | > 100 µM | 73.2 µM
38 | O=[N+]([O-])c1cc2ccc1OCc1cccc(n1)COc1ccc(cc1[N+](=O)[O-])C=NCCCCCCCCN=C2 | > 100 µM | > 100 µM | > 100 µM | > 100 µM | –
39 | CC(=O)c1sc2n(C)c(=O)c3ccccc3[n+]2c1C | > 100 µM | > 100 µM | > 100 µM | > 100 µM | > 100 µM
40 | COc1ccc2cc(/C=N\NC(=O)Nc3ccc([N+](=O)[O-])cc3)ccc2c1 | 24.5 µM | 25.1 µM | 20.1 µM | > 31.6 µM | 19.5 µM
41 | CN(C(=O)c1cc2c(s1)sc1c(=O)n(C)c3ccccc3c12)c1ccccc1 | > 100 µM | > 100 µM | > 100 µM | – | > 100 µM
42 | O=c1cc(-c2ccc3ccccc3c2)[nH]c2ncccc12 | > 100 µM | – | > 100 µM | > 100 µM | > 100 µM
43 | COC(=O)/C=C1/OC(c2ccc(C)cc2C)=CC1=O | 31.8 µM | 30.1 µM | – | 10.4 µM | 38.4 µM
44 | COc1cccc(N2C(=O)C3c4[nH]c5ccc(C)cc5c4C4CCC(C)CC4C3C2=O)c1 (stereo not drawn) | – | > 100 µM | > 100 µM | > 100 µM | –
45 | Oc1ccc2ccccc2c1NCn1nc(CCCCCCCCc2nn(CNc3c(O)ccc4ccccc34)c(=S)o2)oc1=S | > 100 µM | > 100 µM | > 100 µM | > 100 µM | –
46 | O=C1CC2(CCNCC2)C(=O)N1N1CCCCC1 | > 100 µM | – | > 100 µM | > 100 µM | > 100 µM
47 | Oc1ccccc1-c1n[nH]c(-c2ccccc2O)n1 | > 100 µM | > 100 µM | – | > 100 µM | 78.5 µM
48 | CC1CN=C(NS(=O)(=O)c2cc(C(=O)Nc3ccccc3)c(Cl)cc2S)NN1 (stereo not drawn) | > 100 µM | 52.5 µM | > 100 µM | > 100 µM | –
